According to patent publication US20260274829A1, “NEW E3 UBIQUITIN LIGASE LIGAND, PROTEIN DEGRADATION AGENT AND USE THEREOF” (GLUETACS THERAPEUTICS (SHANGHAI) CO., LTD., priority 2023, published 2026):

What was measured:
Type in all cases: cell-based
WEE1 = biological target: T1, WEE1 (Homo sapiens, UniProt P30291+Q96SW2); assay: Western blot degradation of WEE1 in hPBMC
T1 construct: endogenous in cells; host or cells: hPBMC
Method in brief: (§1)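 Compound-treated hPBMC lysates were denatured in SDS loading buffer at 95° C for 5 minutes, run on SDS-PAGE and blotted to nitrocellulose. DC50 is the concentration giving band grayscale half that of DMSO controls, from a fitted concentration-response curve; remaining protein is band intensity normalized to an internal control protein.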

IKZF1 = biological target: T2, IKZF1 (Homo sapiens, UniProt Q13422+Q96SW2); assay: Western blot degradation of IKZF1 in hPBMC
T2 construct: endogenous in cells; host or cells: hPBMC
Method in brief: as §1

IKZF2 = biological target: T3, IKZF2 (Homo sapiens, UniProt Q96SW2+Q9UKS7); assay: Western blot degradation of IKZF2 in hPBMC
T3 construct: endogenous in cells; host or cells: hPBMC
Method in brief: as §1

IKZF3 = biological target: T4, IKZF3 (Homo sapiens, UniProt Q96SW2+Q9UKT9); assay: Western blot degradation of IKZF3 in hPBMC
T4 construct: endogenous in cells; host or cells: hPBMC
Method in brief: as §1

CK1a = biological target: T5, CK1a (Homo sapiens, UniProt P48729+Q96SW2); assay: Western blot degradation of CK1a in hPBMC
T5 construct: endogenous in cells; host or cells: hPBMC
Method in brief: as §1

GSPT1 = biological target: T6, GSPT1 (Homo sapiens, UniProt P15170+Q96SW2); assay: Western blot degradation of GSPT1 in hPBMC
T6 construct: endogenous in cells; host or cells: hPBMC
Method in brief: as §1

T2 sequence (Q13422 whole entry): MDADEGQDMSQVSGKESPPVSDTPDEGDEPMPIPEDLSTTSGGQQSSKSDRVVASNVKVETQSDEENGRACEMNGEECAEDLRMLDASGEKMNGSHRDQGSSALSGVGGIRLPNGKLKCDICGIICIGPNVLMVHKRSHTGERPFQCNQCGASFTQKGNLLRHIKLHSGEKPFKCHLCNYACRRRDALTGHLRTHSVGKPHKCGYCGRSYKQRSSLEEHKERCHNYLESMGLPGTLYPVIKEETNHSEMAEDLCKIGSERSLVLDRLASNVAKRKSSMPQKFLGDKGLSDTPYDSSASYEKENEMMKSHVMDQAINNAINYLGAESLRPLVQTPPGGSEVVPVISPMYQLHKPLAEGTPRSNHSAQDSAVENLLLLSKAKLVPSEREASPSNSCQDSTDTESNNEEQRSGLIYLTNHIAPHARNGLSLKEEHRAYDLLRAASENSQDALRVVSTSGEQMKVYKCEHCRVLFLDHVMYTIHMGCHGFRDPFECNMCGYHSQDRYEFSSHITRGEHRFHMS
T2 sequence (Q96SW2 whole entry): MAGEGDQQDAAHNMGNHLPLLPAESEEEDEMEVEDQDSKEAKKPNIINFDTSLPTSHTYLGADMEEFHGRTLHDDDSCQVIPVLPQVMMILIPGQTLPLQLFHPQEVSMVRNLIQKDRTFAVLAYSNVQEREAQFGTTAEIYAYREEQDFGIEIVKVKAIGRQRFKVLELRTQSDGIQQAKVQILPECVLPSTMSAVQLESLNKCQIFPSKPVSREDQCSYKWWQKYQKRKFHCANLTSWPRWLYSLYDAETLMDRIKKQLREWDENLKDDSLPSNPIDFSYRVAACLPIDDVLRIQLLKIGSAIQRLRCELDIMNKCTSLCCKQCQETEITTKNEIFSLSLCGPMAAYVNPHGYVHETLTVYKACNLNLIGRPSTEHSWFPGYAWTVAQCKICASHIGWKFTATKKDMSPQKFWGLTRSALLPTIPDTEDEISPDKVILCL
T2 sequence (Q16531 whole entry partner): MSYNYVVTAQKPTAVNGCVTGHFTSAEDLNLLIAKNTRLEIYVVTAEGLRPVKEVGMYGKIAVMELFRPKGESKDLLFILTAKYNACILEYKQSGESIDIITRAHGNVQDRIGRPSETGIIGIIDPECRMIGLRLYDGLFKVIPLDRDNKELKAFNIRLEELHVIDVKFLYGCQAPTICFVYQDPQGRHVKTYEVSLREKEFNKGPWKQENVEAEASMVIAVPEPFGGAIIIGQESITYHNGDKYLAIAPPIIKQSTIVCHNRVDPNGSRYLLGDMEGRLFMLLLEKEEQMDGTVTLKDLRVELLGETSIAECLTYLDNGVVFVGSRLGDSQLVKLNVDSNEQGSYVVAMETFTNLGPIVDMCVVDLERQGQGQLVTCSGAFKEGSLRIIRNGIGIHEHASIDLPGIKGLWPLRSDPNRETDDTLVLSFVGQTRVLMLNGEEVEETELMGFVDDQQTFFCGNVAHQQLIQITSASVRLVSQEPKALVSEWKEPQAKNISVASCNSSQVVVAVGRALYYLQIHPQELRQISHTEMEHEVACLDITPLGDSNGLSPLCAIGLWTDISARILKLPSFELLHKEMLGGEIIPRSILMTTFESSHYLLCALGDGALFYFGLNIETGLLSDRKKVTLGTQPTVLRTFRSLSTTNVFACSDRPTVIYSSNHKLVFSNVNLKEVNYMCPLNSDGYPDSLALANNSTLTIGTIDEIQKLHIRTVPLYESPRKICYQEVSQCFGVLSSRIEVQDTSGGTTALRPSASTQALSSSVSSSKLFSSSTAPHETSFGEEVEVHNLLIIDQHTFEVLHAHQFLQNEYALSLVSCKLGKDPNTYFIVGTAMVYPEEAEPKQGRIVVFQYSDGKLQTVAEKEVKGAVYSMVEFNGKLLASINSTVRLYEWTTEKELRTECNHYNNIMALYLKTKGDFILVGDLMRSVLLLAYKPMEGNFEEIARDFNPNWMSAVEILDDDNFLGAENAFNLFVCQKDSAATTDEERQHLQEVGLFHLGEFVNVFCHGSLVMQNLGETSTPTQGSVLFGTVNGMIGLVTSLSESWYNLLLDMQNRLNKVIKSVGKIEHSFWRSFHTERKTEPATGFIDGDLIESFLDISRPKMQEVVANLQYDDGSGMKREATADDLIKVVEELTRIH
T3 sequence (Q9UKS7 whole entry): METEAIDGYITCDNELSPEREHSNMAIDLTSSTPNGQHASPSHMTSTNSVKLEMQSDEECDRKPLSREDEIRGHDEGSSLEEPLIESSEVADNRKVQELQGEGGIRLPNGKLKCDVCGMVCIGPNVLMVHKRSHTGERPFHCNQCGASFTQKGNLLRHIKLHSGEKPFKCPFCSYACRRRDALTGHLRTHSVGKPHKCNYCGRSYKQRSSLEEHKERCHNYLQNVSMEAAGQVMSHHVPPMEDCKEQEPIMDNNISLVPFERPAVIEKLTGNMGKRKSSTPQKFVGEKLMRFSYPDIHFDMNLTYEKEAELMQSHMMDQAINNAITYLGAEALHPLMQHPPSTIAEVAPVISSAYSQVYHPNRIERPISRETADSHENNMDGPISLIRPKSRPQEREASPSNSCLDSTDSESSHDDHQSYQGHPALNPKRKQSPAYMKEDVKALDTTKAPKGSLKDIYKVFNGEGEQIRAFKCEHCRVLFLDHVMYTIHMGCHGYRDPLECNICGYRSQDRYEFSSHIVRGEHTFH
T3 sequence (Q96SW2 whole entry): as the sequence (Q96SW2 whole entry) above
T3 sequence (Q16531 whole entry partner): as the sequence (Q16531 whole entry partner) above
T4 sequence (Q9UKT9 whole entry): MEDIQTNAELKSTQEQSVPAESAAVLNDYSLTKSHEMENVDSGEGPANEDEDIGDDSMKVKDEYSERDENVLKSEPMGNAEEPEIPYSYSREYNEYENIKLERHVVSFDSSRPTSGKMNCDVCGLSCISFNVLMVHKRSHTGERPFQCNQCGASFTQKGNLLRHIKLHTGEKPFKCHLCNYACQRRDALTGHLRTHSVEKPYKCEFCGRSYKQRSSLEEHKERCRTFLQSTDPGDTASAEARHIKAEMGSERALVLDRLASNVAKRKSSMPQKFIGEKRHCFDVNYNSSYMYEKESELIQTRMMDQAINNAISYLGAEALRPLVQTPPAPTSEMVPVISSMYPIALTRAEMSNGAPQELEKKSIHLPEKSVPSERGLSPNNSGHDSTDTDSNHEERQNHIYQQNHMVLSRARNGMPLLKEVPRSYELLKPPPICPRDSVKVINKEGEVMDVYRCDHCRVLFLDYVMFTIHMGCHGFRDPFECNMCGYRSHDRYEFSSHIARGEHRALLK
T4 sequence (Q96SW2 whole entry): as the sequence (Q96SW2 whole entry) above
T4 sequence (Q16531 whole entry partner): as the sequence (Q16531 whole entry partner) above
T5 sequence (P48729 whole entry): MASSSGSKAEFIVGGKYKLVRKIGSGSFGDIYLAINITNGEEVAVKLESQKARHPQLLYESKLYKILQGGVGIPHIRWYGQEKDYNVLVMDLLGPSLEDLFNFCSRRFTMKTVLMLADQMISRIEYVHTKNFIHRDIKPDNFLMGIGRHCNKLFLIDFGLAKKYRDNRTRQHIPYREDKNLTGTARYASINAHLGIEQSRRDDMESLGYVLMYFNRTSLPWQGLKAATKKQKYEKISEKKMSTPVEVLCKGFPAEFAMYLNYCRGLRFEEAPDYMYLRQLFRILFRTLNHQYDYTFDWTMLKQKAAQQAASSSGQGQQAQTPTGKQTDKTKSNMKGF
T5 sequence (Q96SW2 whole entry): as the sequence (Q96SW2 whole entry) above
T5 sequence (Q16531 whole entry partner): as the sequence (Q16531 whole entry partner) above
T6 sequence (P15170 whole entry): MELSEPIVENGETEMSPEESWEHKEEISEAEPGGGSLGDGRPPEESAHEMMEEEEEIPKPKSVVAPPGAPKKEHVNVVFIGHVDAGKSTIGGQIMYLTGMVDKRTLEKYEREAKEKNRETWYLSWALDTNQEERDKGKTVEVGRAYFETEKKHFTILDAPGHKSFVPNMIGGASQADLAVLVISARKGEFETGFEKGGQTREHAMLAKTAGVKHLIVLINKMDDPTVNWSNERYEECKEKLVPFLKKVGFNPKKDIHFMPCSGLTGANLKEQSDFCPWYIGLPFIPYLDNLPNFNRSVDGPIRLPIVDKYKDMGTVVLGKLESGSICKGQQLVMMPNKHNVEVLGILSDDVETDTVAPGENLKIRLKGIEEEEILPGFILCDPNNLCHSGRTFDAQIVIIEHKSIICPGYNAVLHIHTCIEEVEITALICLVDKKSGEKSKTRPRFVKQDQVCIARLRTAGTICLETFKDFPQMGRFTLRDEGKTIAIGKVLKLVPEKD
T6 sequence (Q96SW2 whole entry): as the sequence (Q96SW2 whole entry) above
T6 sequence (Q16531 whole entry partner): as the sequence (Q16531 whole entry partner) above

Row | SMILES | Degradation of substrate protein WEE1 (substrate protein remaining %) (WEE1) | Degradation of substrate protein IKZF1 (substrate protein remaining %) (IKZF1) | Degradation of substrate protein IKZF2 (substrate protein remaining %) (IKZF2) | Degradation of substrate protein IKZF3 (substrate protein remaining %) (IKZF3) | Degradation of substrate protein CK1a (substrate protein remaining %) (CK1a) | Degradation of substrate protein GSPT1 (substrate protein remaining %) (GSPT1)
1 | O=C1CCC(c2cc(CO)ccn2)C(=O)N1 (stereo not drawn) [GT-07050, 3-(4-(hydroxymethyl)pyridin-2-yl)piperidine-2,6-dione] | B (B is defined as substrate protein remaining % > 80%) | A (A is defined as 0% ≤ substrate protein remaining % ≤ 80%) | B (B is defined as substrate protein remaining % > 80%) | A (A is defined as 0% ≤ substrate protein remaining % ≤ 80%) | A (A is defined as 0% ≤ substrate protein remaining % ≤ 80%) | A (A is defined as 0% ≤ substrate protein remaining % ≤ 80%)
2 | NCc1ccnc(N2CCC(=O)NC2=O)c1 [GT-07198, 1-(4-(aminomethyl)pyridin-2-yl)dihydropyrimidine-2,4(1H,3H)-dione] | B (B is defined as substrate protein remaining % > 80%) | B (B is defined as substrate protein remaining % > 80%) | B (B is defined as substrate protein remaining % > 80%) | A (A is defined as 0% ≤ substrate protein remaining % ≤ 80%) | B (B is defined as substrate protein remaining % > 80%) | B (B is defined as substrate protein remaining % > 80%)
3 | CC(C)(C)[Si](C)(C)OCc1cnc(NC2CCC(=O)NC2=O)nc1 (stereo not drawn) [GT-07808, 3-((5-(((tert-butyldimethylsilyl)oxy)methyl)pyrimidin-2-yl)amino)piperidine-2,6-dione] | A (A is defined as 0% ≤ substrate protein remaining % ≤ 80%) | A (A is defined as 0% ≤ substrate protein remaining % ≤ 80%) | A (A is defined as 0% ≤ substrate protein remaining % ≤ 80%) | A (A is defined as 0% ≤ substrate protein remaining % ≤ 80%) | B (B is defined as substrate protein remaining % > 80%) | B (B is defined as substrate protein remaining % > 80%)
4 | O=C1CCC(Nc2ncc(CO)cn2)C(=O)N1 (stereo not drawn) [GT-07809, 3-((5-(hydroxymethyl)pyrimidin-2-yl)amino)piperidine-2,6-dione] | A (A is defined as 0% ≤ substrate protein remaining % ≤ 80%) | A (A is defined as 0% ≤ substrate protein remaining % ≤ 80%) | A (A is defined as 0% ≤ substrate protein remaining % ≤ 80%) | A (A is defined as 0% ≤ substrate protein remaining % ≤ 80%) | B (B is defined as substrate protein remaining % > 80%) | B (B is defined as substrate protein remaining % > 80%)
5 | CC(C)(C)[Si](C)(C)OCc1cncnc1NC1CCC(=O)NC1=O (stereo not drawn) [GT-07639, 3-((5-(((tert-butyldimethylsilyl)oxy)methyl)pyrimidin-4-yl)amino)piperidine-2,6-dione] | A (A is defined as 0% ≤ substrate protein remaining % ≤ 80%) | A (A is defined as 0% ≤ substrate protein remaining % ≤ 80%) | A (A is defined as 0% ≤ substrate protein remaining % ≤ 80%) | A (A is defined as 0% ≤ substrate protein remaining % ≤ 80%) | A (A is defined as 0% ≤ substrate protein remaining % ≤ 80%) | A (A is defined as 0% ≤ substrate protein remaining % ≤ 80%)
